In patent US8022205B2, “Pyrimidine derivatives as PI3K inhibitor and use thereof” (Chugai Seiyaku Kabushiki Kaisha, priority 2006, dated 2011):
Where a name gives a salt, the structure may show the parent alone.

Legend:
[1] = system: human prostate cancer cell line PC3; assay: Cell proliferation inhibitory activity (Cell Counting Kit-8), prostate cancer PC3; type: cell-based; details: 96 h, PC3, 4 days
Protocol: (§1) The cell proliferation inhibitory activity was measured for compounds of the present invention represented by formula (I). Cancer cell proliferation inhibitory activity was measured using the Cell Counting Kit-8 (Dojindo). 2000 cells each of human colon cancer cell line HCT116 purchased from the American Type Culture Collection (Virginia, USA) were seeded into each well of a 96-well culture plate followed by the addition of a predetermined concentration of the compounds and cultivating in a CO2environment for 4 days at 37° C. On the fourth day of cultivating, the Cell Counting Kit-8 solution was added and absorbance (measuring wavelength: 450 nm, reference wavelength: 615 nm) was measured in accordance with the protocol provided with the kit.
(§2) Cancer cell proliferation inhibitory activity was also measured for human lung cancer cell line NCI-H460 and human prostate cancer cell line PC3 purchased from the American Type Culture Collection. 1000 and 3000 cells of NCI-H460 and PC3, respectively, were seeded into each well of a 96-well culture plate followed by testing in the same manner as the human colon cancer cell line and calculating the percentage of cell proliferation inhibition at 2.5 μM.

[2] = system: human colon cancer cell line HCT116; assay: Cell proliferation inhibitory activity (Cell Counting Kit-8), colon cancer HCT116; type: cell-based; details: HCT-116, 96 h, HCT116, 4 days
Protocol: as §1

[3] = system: human lung cancer cell line NCI-H460; assay: Cell proliferation inhibitory activity (Cell Counting Kit-8), lung cancer NCI-H460; type: cell-based; details: 96 h, NCI-H460, 4 days, read-out: Cell proliferation inhibitory activity (% Inhibition at 2.5 μM) Non-small cell lung cancer (NCI-H460)
Protocol: as §1, §2

[4] = target: human PI3K(p110α/p85α) (Homo sapiens, UniProt P42336); assay: Measurement of PI3K inhibitory activity (AlphaScreen GST Detection Kit); type: biochemical; details: 10 μM ATP, 4 μM PI(4,5)P2, read-out: Enzyme inhibitory activity (IC50, μM) PI3K α
human PI3K(p110α/p85α), sequence (P42336 whole entry): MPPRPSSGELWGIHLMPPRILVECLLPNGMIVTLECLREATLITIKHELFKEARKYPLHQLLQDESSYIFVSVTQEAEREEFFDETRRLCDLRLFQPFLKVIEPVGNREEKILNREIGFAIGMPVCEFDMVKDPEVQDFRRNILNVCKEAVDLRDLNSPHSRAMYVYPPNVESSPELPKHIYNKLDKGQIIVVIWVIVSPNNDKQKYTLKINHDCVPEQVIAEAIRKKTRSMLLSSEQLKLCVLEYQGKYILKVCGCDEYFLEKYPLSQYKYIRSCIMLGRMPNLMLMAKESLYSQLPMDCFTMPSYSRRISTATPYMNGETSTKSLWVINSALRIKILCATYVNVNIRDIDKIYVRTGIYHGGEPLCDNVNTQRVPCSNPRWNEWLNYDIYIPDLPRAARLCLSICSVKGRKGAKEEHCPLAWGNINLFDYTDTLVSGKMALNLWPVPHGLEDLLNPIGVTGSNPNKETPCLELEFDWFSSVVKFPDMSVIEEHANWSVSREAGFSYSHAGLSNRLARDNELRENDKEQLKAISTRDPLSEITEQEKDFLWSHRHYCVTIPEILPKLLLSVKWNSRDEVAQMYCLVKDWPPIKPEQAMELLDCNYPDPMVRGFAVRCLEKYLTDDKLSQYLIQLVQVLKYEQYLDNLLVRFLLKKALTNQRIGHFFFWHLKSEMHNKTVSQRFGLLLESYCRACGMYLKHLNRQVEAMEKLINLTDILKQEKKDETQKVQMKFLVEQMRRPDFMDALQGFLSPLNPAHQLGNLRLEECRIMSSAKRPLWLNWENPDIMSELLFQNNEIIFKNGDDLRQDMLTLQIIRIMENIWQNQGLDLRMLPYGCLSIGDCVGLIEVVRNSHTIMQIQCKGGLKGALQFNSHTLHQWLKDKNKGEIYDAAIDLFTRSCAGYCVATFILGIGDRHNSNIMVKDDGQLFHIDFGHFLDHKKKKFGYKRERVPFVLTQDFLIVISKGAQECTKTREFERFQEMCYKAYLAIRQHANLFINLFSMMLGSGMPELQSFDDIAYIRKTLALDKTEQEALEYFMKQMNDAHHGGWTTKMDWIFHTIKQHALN
human PI3K(p110α/p85α), sequence (P27986 whole entry partner): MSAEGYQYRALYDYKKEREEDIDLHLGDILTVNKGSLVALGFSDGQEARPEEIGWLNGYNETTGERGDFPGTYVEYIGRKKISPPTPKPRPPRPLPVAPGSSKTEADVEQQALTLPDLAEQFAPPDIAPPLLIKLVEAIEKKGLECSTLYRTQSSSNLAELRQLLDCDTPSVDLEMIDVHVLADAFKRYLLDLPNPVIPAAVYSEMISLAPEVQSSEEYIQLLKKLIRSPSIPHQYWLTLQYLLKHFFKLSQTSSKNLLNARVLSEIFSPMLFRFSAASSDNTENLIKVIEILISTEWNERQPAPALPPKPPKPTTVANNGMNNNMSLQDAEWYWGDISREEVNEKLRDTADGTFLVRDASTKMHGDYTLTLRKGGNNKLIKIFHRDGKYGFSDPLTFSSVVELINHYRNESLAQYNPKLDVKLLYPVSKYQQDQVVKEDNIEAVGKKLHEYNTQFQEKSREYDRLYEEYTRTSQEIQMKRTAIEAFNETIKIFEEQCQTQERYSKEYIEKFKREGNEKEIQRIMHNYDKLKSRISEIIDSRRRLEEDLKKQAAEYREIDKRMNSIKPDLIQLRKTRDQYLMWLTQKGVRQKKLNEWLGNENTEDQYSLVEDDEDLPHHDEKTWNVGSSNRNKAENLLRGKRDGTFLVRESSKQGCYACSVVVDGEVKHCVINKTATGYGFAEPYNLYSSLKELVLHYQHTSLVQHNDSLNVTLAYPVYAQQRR
Protocol: The inhibitory activity of compounds of the present invention represented by formula (I) were measured with human PI3K(p110α/p85α) prepared in a baculovirus expression system using the AlphaScreen GST Detection Kit (Perkin Elmer, Inc.). A predetermined concentration of the compound dissolved in dimethylsulfoxide (DMSO) and PI3K were mixed in a 384-well assay plate and after allowing to stand for 20 minutes at room temperature, 4 μM PI(4,5)P2 (Echelon Corporation) and 10 μM ATP (5 mM Hepes, pH 7.5, 2.5 mM MgCl2) were added to initiate the reaction. After reacting for 15 minutes at 37° C., GST-GRP1 expressed and purified from Escherichia coli, Anti-GST Acceptor Beads (Perkin Elmer, Inc.), Streptavidin Donor Beads (Perkin Elmer, Inc.) and biotin-PI(3,4,5) P3 (Echelon Corporation) (10 mM Tris-HCl pH 7.4, 150 mM NaCl, 7.5 mM EDTA, 1 mM DTT, 0.1% Tween 20) were added, and after allowing to stand for 1 hour at room temperature, light at 520 to 620 nm emitted as a result of exciting with light at 680 nm was measured with the Envision measuring instrument (Perkin Elmer, Inc.).
Test Example 1 described above can be performed according to “Analytical Biochemistry, 2003, 313, 234-245; Alexander Gray et al”.

| Compound | inhibition at 2.5 µM [1] [%] | inhibition at 2.5 µM [2] [%] | inhibition at 2.5 µM [3] [%] | IC50 [4] [µM] |
| --- | --- | --- | --- | --- |
| Nc1ncc(-c2nc(N3CCOCC3)nc3c2CCN3c2ccc(CN3CCN(CCF)CC3)cc2)cn1 [Example D-329, 5-(7-{4-[4-(2-fluoroethyl)-piperazin-1-ylmethyl]-phenyl}-2-morpholin-4-yl-6,7-dihydro-5H-pyrrolo[2,3-d]pyrimidin-4-yl)-pyrimidin-2-ylamine] | 65 | 73 | 81 | 0.26 |
| CN1CCN(Cc2ccc3cc(N4CCc5c(-c6cnc(N)nc6)nc(N6CCOCC6)nc54)ccc3c2)CC1 [Example D-333, 5-{7-[6-(4-methyl-piperazin-1-ylmethyl)naphthalen-2-yl]-2-morpholin-4-yl-6,7-dihydro-5H-pyrrolo[2,3-d]pyrimidin-4-yl}-pyrimidin-2-ylamine] | 43 | 99 | 102 | 0.16 |
| COc1ncc(-c2nc(N3CCOCC3)nc3c2CCN3c2cccnc2)c(OC)n1 [Example B-09, 4-(2,4-Dimethoxy-pyrimidin-5-yl)-2-morpholin-4-yl-7-pyridin-3-yl-6,7-dihydro-5H-pyrrolo[2,3-d]pyrimidine] | 56 | 45 | 67 | 0.26 |
| OCc1cc(-c2nc(N3CCOCC3)nc3c2CCN3c2ccncc2)ccc1F [Example B-35, [2-Fluoro-5-(2-morpholin-4-yl-7-pyridin-4-yl-6,7-dihydro-5H-pyrrolo[2,3-d]pyrimidin-4-yl)-phenyl]-methanol] | 61 | 78 | 71 | 0.87 |
| Nc1ncc(-c2nc(N3CCOCC3)nc3c2CCN3C(=O)Nc2cccc(C(=O)N3CCOCC3)c2)cn1 [Example D-102, 4-(2-Amino-pyrimidin-5-yl)-2-morpholin-4-yl-5,6-dihydro-pyrrolo[2,3-d]pyrimidine-7-carboxylic acid [3-(morpholine-4-carbonyl)-phenyl]-amide] | 70 | 72 | 94 | 0.007 |
| CCN1CCN(C(=O)c2ccc(C)c(NC(=S)N3CCc4c(-c5cnc(N)nc5)nc(N5CCOCC5)nc43)c2)CC1 [Example D-17, 4-(2-Amino-pyrimidin-5-yl)-2-morpholin-4-yl-5,6-dihydro-pyrrolo[2,3-d]pyrimidine-7-carbothioic acid [5-(4-ethyl-piperazine-1-carbonyl)-2-methyl-phenyl]-amide] | 93 | 96 | 97 | 0.024 |
| Oc1cccc(-c2nc(N3CCOCC3)nc3c2CCN3c2ccnc(N3CCOCC3)c2)c1 [Example A-44, 3-[2-Morpholin-4-yl-7-(2-morpholin-4-yl-pyridin-4-yl)-6,7-dihydro-5H-pyrrolo[2,3-d]pyrimidin-4-yl]-phenol] | 79 | 69 | 82 | 0.05 |
| Nc1ncc(-c2nc(N3CCOCC3)nc3c2CCN3C(=O)Nc2ccc(NCCN3CCOCC3)cc2)cn1 [Example D-108, 4-(2-Amino-pyrimidin-5-yl)-2-morpholin-4-yl-5,6-dihydro-pyrrolo[2,3-d]pyrimidine-7-carboxylic acid [4-(2-morpholin-4-yl-ethylamino)-phenyl]-amide] | 90 | 92 | 95 | 0.007 |
| CCNC(=O)N1CCc2c(-c3cnc(N)nc3)nc(N3CCOCC3)nc21 [Example D-03, 4-(2-Amino-pyrimidin-5-yl)-2-morpholin-4-yl-5,6-dihydro-pyrrolo[2,3-d]pyrimidine-7-carboxylic acid ethylamide] | 88 | 92 | 92 | 0.02 |
| CCN1CCN(c2cc(F)c(NC(=O)N3CCc4c(-c5cnc(N)nc5)nc(N5CCOCC5)nc43)c(F)c2)CC1 [Example D-18, 4-(2-Amino-pyrimidin-5-yl)-2-morpholin-4-yl-5,6-dihydro-pyrrolo[2,3-d]pyrimidine-7-carboxylic acid [4-(4-ethyl-piperazin-1-yl)-2,6-difluoro-phenyl]-amide] | 93 | 100 | 102 | 0.022 |
| Nc1ncc(-c2nc(N3CCOCC3)nc3c2CCN3c2ccc(CC(=O)N3CCNCC3)cc2)cn1 [Example D-172, 2-{4-[4-(2-Amino-pyrimidin-5-yl)-2-morpholin-4-yl-5,6-dihydro-pyrrolo[2,3-d]pyrimidin-7-yl]-phenyl}-1-piperazin-1-yl-ethanone] | 86 | 86 | 79 | 0.008 |
| Oc1cc(-c2nc(N3CCOCC3)nc3c2CCN3c2ccncc2)ccc1F [Example A-32, 2-Fluoro-5-(2-morpholin-4-yl-7-pyridin-4-yl-6,7-dihydro-5H-pyrrolo[2,3-d]pyrimidin-4-yl)-phenol trifluoroacetic acid salt] | 81 | 81 | 79 | 0.24 |
| CCN1CCN(C(=O)c2ccc(N3CCc4c(-c5cnc(N)nc5)nc(N5CCOCC5)nc43)c(F)c2)CC1 [Example D-138, {4-[4-(2-Amino-pyrimidin-5-yl)-2-morpholin-4-yl-5,6-dihydro-pyrrolo[2,3-d]pyrimidin-7-yl]-3-fluoro-phenyl}-(4-ethyl-piperazin-1-yl)-methanone] | 85 | 82 | 86 | 0.11 |
| Nc1ncc(-c2nc(N3CCOCC3)nc3c2CCN3c2ccc(C(=O)N3CCN(c4cccnc4)CC3)cc2F)cn1 [Example D-21, {4-[4-(2-Amino-pyrimidin-5-yl)-2-morpholin-4-yl-5,6-dihydro-pyrrolo[2,3-d]pyrimidin-7-yl]-3-fluoro-phenyl}-(4-pyridin-3-yl-piperazin-1-yl)-methanone] | 100 | 77 | 79 | 0.01 |
| Oc1cccc(-c2nc(N3CCOCC3)nc3c2CCN3c2ccc3[nH]cnc3c2)c1 [Example A-14, 3-[7-(1H-benzimidazol-5-yl)-2-morpholin-4-yl-6,7-dihydro-5H-pyrrolo[2,3-d]pyrimidin-4-yl]-phenol] | 98 | 76 | 95 | 0.08 |
| CC(C)N1CCN(Cc2ccc(N3CCc4c(-c5cnc(N)nc5)nc(N5CCOCC5)nc43)cc2)CC1 [Example D-328, 5-{7-[4-(4-isopropyl-piperazin-1-ylmethyl)-phenyl]-2-morpholin-4-yl-6,7-dihydro-5H-pyrrolo[2,3-d]pyrimidin-4-yl}-pyrimidin-2-ylamine] | 84 | 84 | 91 | 0.06 |
| CCN1CCN(C(=O)c2ccc(N3CCc4c(-c5cnc(N)nc5)nc(N5CCOCC5)nc43)cn2)CC1 [Example D-95, {5-[4-(2-Amino-pyrimidin-5-yl)-2-morpholin-4-yl-5,6-dihydro-pyrrolo[2,3-d]pyrimidin-7-yl]-pyridin-2-yl}-(4-ethyl-piperazin-1-yl)-methanone] | 91 | 93 | 83 | 0.007 |
| Nc1ncc(-c2nc(N3CCOCC3)nc3c2CCN3c2ccc(CNCc3cccnc3)cc2)cn1 [Example D-334] | 90 | 93 | 94 | 0.2 |
| CCN1CCN(C(=O)c2cc(F)c(NC(=O)N3CCc4c(-c5cnc(N)nc5)nc(N5CCOCC5)nc43)c(F)c2)CC1 [Example D-24, 4-(2-Amino-pyrimidin-5-yl)-2-morpholin-4-yl-5,6-dihydro-pyrrolo[2,3-d]pyrimidine-7-carboxylic acid [4-(4-ethyl-piperazine-1-carbonyl)-2,6-difluoro-phenyl]-amide] | 91 | 88 | 94 | 0.034 |
